Entries after “also recorded” stand apart in the source; their conditions may differ.
How the values were obtained:
[1] = Bioavailability / pharmacokinetics in beagle dogs after single oral dose; format: in vivo
Method: Additionally, preparations containing crystalline compound of formula I (Examples IIIB and IIIC) and amorphous compound of formula I (Example IIA) were evaluated for bioavailability in beagle dogs with body weight of approximately 10 kg. Each dog was given a formulation containing 90 mg of compound of formula I. Blood samples were collected from each dog prior to dosing (0 h) and at 0.5, 1, 2, 4, 6, 8, 12, 24, 36 and 48 hours after dosing. EDTA was used as an anticoagulant. Each plasma sample was separated after cold centrifugation and frozen in an amber vial at a minimum of −60° C. before analysis. Compound of formula I was extracted from plasma and the plasma concentration of compound of formula I was determined using a positive ion TurbolonSpray LC-MS/MS assay[HPLC using HP1100 LC system, Hewleft-Packard, Inc. (Agilent Technologies, Wilmington, Del.) and Mass Spectrometer using PE-Sciex API-3+ (Perkin-Elmer Instruments, Wilton, Conn.), Ionization mode: Turbulonspray, 500C, positive ion] The calibration range was 1 to 1,000 ng/mL using a 100-μL plasma sample. […]

[2] = Two-stage dissolution method (water, then 6% SLS in phosphate buffer pH 6.8); format: physicochemical; details: FIG. 6 dissolution profile, Example IIA versus Example IIIA
Method: The formulation of Example IIIA containing crystalline compound of formula I (Example IIIA) and the formulation of (Example IIA) containing amorphous compound of formula I were evaluated for dissolution by a two-stage (two dissolution media) dissolution method. At Stage I, 300 mL of deionized water at 37°±0.5° C. using paddles at 75 rpm was used. At Stage II, 600 mL of 6% w/v Sodium Lauryl Sulfate in 0.015M Phosphate Buffer, pH 6.8 equilibrated at 37°±0.5° C., was carefully added into the dissolution vessel 25 minutes after the Stage I dissolution was initiated. Sample aliquots were taken at different time intervals and analyzed by UV spectrophotometry.

[3] = Stability of the amorphous form under accelerated storage (powder X-ray diffraction); format: physicochemical; details: 40° C./75% RH, closed glass vial for 6 months, independent of form stabilizers; FIG. 5
[4] = physchem; details: aqueous media at physiological pHs, aqueous buffer
Source text: A crystalline form of the compound of formula I is known. See, e.g., U.S. Pat. No. Re. 36,736. […] (Id. column 22, lines 5-6). […] See, e.g. U.S. Pat. No. 6,048,887 and EP 0 988,863.

bioavailability as compared to the crystalline form ([1]; amorphous versus crystalline form)	solubility versus crystalline form [2]	solubility [4]	bioavailability ([1]; dog, in vivo, in dogs, previously known crystalline form (background statement))	Structure (SMILES)	retention of amorphous form on storage [3]
approximately 15 fold	much more soluble	–	–	Cn1cc(C2=C(c3cn(C)c4cc([N+](=O)[O-])ccc34)C(=O)NC2=O)c2ccccc21 [amorphous compound of formula I, 3-(1-methyl-3-indolyl)-4-(1-methyl-6-nitro-3-indolyl)-1H-pyrrole-2,5,-dione]	maintained its amorphous properties; also recorded: remained in its amorphous form
–	–	< 10 µg/mL	< 5%	Cn1cc(C2=C(c3cn(C)c4cc([N+](=O)[O-])ccc34)C(=O)NC2=O)c2ccccc21 [crystalline compound of formula I, 3-(1-methyl-3-indolyl)-4-(1-methyl-6-nitro-3-indolyl)-1H-pyrrole-2,5,-dione, reference compound]	–
